Data: patent US20050080062A1, “Breast cancer treatment regimen” (priority 2003, published 2005)

Test system: primary breast cancer (hormone receptor positive or unknown)
Assay type: in vivo, postmenopausal women
Experimental: The study was a phase III randomized double-blind placebo-controlled study of letrozole in postmenopausal women with primary breast cancer completing five years of adjuvant tamoxifen. Patients were allocated to receive either letrozole 2.5 mg or placebo once daily by mouth for five years. Stratification factors at randomization were tumor receptor status (positive, unknown), lymph node status at diagnosis (negative, positive or unknown) and prior adjuvant chemotherapy (yes, no). The primary objective was disease-free survival (DFS). Secondary endpoints included overall survival (OS)(all cause mortality), contralateral breast cancer occurrence, quality of life and long term clinical and laboratory safety with special attention paid to cardiovascular morbidity and mortality and bone fractures. Adverse events were assessed by the NCI Common Toxicity Criteria version 2.0. Quality of life was assessed using the SF-36 and Menopause-Specific Quality of Life questionnaires. Companion studies assessed lipid profiles and changes in bone density.
Premenopausal women who were <50 years at the start of treatment with tamoxifen but who became amenorrheic during the course of adjuvant chemotherapy or during their treatment with tamoxifen and who remained so throughout the ensuing years of tamoxifen treatment and women with LH/FSH levels within post-menopausal limits were also eligible. Other eligibility included: histologically confirmed invasive breast cancer; tumor receptor positive or unknown (ER and/or PgR positive defined as a tumour receptor content of ≧10 fmol/mg protein, or receptor positive by ERICA or PgRICA); tamoxifen discontinued <3 months prior to enrolment; ECOG performance status 0,1 or 2 and a life expectancy of >5 years. […] Ineligibility included: concurrent use of investigational drugs; prior or concurrent malignancy other than skin cancer or carcinoma in situ of the cervix.
Concomitant medications prohibiting enrolment included: systemic hormone replacement therapy or SERMS (selective estrogen receptor modulators). Intermittent use of vaginal estrogens was permitted.
All study participants were randomised. Study medication began within 5 working days of randomisation. Clinical evaluation, routine blood work, toxicity evaluation and mammography (annually only) occurred six monthly in year one and annually thereafter. Serious toxicities and deaths were reported within 24 hours. Treatment was discontinued for: serious intercurrent illness, unacceptable toxicity, disease recurrence and patient request. SF-36 and Menqol questionnaires were completed by a subset of patients at each visit. Fasting lipid samples and bone mineral density evaluations occurred in sub-sets of participants on the bone and lipid companion studies. Recurrence of disease was defined histologically, cytologically or by clinical and/or radiologic suspicion and dated by the first time of detection. Management of recurrent cancer was at the discretion of the treating physician. Patients developing any second malignancy other than non-melanoma skin cancer or carcinoma in-situ of the cervix had to discontinue study therapy.
Interim analyses and other decisions regarding early termination of the study were referred to an independent Data and Safety Monitoring Committee (DSMC) consisting of clinicians, patient representatives and statisticians who reviewed the study twice a year.
Disease free survival, defined as the time from randomization to the time of recurrence of the primary disease (in the breast, chest wall, nodal or metastatic sites) or development of contralateral breast cancer, was the primary endpoint of the study. The sample size calculation assumed a 4 year disease free survival of 88% for patients on the placebo arm and a hazard ratio of 1.28, which represents 2.5% improvement in 4 year disease free survival from 88% to 90.5%. […]

[1] = among 207 events at first analysis

N#Cc1ccc(C(c2ccc(C#N)cc2)n2cncn2)cc1 [letrozole]
hazard ratio of patients on placebo versus those on letrozole for OS (95% confidence interval from 0.85 to 2.17, stratified two sided log-rank p 0.20): 1.36 | hazard ratio of placebo to letrozole for DFS (95% confidence interval from 1.33 to 2.34, stratified two sided log-rank p 0.000077): 1.76 | effect on breast cancer recurrence and new primary tumors (in words) (after five years of treatment with tamoxifen): markedly reduced breast cancer recurrance and new primary tumors | women who developed both contralateral breast cancer and metastatic disease [1]: 2 women | women who developed contralateral breast cancer only [1]: 14 women | women with metastatic disease recurrence only [1]: 59 women | patients coming off study because of progressive disease (at the time of the first analysis): 44 patients | patients coming off study because of toxicity (female, human, in vivo): 115 patients | toxicity profile (in words) (in vivo): very favorable toxicity profile | 4 year disease free survival (DFS) (letrozole 2.5 mg once daily by mouth after five years of adjuvant tamoxifen, first interim analysis, 95% confidence interval from 90% to 95%): 93% | 4 year overall survival (OS) (letrozole 2.5 mg once daily, first interim analysis, 95% confidence interval from 94% to 98%): 96% | patients who had died at the time of data cut-off (of 72 deaths in total, 2593 randomized to letrozole): 30 patients
